Values of other authors in US10603272B2, “Stimulation of appetite and treatment of anorexia in dogs and cats” (Kindred Biosciences, Inc., priority 2015, dated 2020).

- solubility in water: insoluble in water
Compound: CN1CCN2c3ncccc3Cc3ccccc3C2C1 (stereo not shown) [mirtazapine]
